Reference: patent publication US9481648B2, “Kinase inhibitors” (Respivert Limited, priority 2013, dated 2016)

Columns and labels:
[1] = biological target: GSK 3α (Homo sapiens (Human), UniProt P49840); assay: GSK 3α enzyme inhibition (FRET, Z-LYTE; Method 2); assay type: biochemical; conditions: read-out: IC50 Values for Enzyme Inhibition GSK3α
How it was run: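 Phosphorylation was taken from the donor (coumarin) to acceptor (fluorescein) emission ratio after 1 h protease development, which cleaves only unphosphorylated peptide. Before that, peptide (8 μM stock) plus ATP (40 μM stock) reacted 1 h. This followed a 105 min RT preincubation of GSK3-α with compound stocks of 10–0.01 μg/mL.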

[2] = biological target: Syk (Homo sapiens (Human), UniProt P43405); assay: Syk enzyme inhibition (FRET, Z-LYTE); assay type: biochemical
How it was run: (§1)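 Syk or c-Src enzyme (3000 or 2000 ng/mL solutions) was preincubated 2 h at RT with compound solutions at 1, 0.1, 0.01 or 0.001 µg/mL. Z-LYTE FRET peptide (8 µM solution) and ATP (800 µM solution for c-Src, 60 µM for Syk) were then added for 1 h, followed by protease development for 1 h. Phosphorylation was read as the coumarin/fluorescein emission ratio.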

[3] = biological target: p38 MAPKα (MAPK14) (Homo sapiens (Human), UniProt Q16539); assay: p38 MAPKα enzyme inhibition (FRET, Z-LYTE; Method 2); assay type: biochemical
Chain of p38 MAPKα (MAPK14) (Q16539 whole entry): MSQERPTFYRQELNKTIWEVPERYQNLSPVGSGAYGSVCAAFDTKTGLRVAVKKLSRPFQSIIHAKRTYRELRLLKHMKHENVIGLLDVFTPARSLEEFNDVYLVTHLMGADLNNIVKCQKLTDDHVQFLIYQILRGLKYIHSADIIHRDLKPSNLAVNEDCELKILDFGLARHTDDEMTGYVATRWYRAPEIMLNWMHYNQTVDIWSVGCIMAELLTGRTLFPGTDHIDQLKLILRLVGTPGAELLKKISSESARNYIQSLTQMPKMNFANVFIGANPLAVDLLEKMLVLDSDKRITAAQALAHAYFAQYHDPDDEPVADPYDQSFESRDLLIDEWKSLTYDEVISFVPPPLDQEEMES

[4] = biological target: c-Src (Homo sapiens (Human), UniProt P12931); assay: c-Src enzyme inhibition (FRET, Z-LYTE); assay type: biochemical
Chain of c-Src (P12931 whole entry, looked up): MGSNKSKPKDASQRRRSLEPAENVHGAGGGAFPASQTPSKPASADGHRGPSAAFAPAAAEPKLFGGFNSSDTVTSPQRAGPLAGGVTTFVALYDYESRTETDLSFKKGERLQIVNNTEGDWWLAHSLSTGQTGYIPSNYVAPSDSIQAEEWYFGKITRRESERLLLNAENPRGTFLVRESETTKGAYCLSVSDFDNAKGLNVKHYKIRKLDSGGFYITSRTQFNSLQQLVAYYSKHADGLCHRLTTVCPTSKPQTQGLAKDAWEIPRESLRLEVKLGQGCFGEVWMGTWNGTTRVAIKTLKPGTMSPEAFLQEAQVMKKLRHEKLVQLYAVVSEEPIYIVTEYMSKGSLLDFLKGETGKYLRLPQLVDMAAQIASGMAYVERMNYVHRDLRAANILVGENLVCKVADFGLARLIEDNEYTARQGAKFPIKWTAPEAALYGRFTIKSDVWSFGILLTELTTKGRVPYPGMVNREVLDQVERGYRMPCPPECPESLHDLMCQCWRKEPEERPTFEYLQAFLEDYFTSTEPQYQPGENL
How it was run: as §1

[5] = test system: β-catenin in d-U937 cells; assay: Accumulation of β catenin in d-U937 cells (assay m); assay type: cell-based, human
How it was run: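 U937 cells were differentiated with PMA (100 ng/mL) for 48–72 hr, then treated with compound or vehicle for 18 hr. After formaldehyde fixation, β-catenin was detected with a primary antibody and an HRP secondary using TMB (OD450–655). Signal was normalised to crystal violet cell staining (OD595).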

Chain of GSK 3α (P49840 whole entry): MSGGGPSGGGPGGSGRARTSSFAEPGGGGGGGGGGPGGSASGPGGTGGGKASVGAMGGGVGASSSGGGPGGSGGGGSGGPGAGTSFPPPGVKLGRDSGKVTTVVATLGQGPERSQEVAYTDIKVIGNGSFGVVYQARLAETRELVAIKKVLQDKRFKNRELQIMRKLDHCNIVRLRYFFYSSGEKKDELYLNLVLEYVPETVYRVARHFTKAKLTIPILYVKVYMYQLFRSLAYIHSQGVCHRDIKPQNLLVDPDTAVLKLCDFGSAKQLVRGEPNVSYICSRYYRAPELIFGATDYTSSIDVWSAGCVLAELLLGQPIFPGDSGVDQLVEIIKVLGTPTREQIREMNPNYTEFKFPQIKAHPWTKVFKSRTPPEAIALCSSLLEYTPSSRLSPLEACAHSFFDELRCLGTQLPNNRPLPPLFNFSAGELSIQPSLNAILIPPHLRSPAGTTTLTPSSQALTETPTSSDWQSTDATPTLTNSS

SMILES | IC50 [1] [nM] | IC50 [2] [nM] | IC50 [3] [nM] | IC50 [4] [nM] | % β-catenin induction ([5]; test compound 1 μg/mL) [%] | % β-catenin induction ([5]; test compound 5 μg/mL) [%] | % β-catenin induction ([5]; test compound 10 μg/mL) [%]
C#Cc1cc(Nc2cc(Oc3ccc(NC(=O)Nc4cc(C(C)(C)C)cc(NS(C)(=O)=O)c4OC)c4ccccc34)ccn2)cc(C(=O)NCCN2CCOCC2)c1 [Example 49, 3-((4-((4-(3-(5-(tert-Butyl)-2-methoxy-3-methylsulfonamido)phenyl)ureido)naphthalen-1-yl)oxy)pyridin-2-yl)amino-5-ethynyl-N-(2-morpholinoethyl)benzamide] | 8360 | 1220 | 258 | 56 | −1 | −2 | −5
COCCOCCOCCOc1cc(Nc2nccc(Oc3ccc(NC(=O)Nc4cc(C(C)(C)C)cc(C(=O)NC5COC5)c4OC)c4ccccc34)n2)cc(OC)c1 [Example 51, 5-(tert-Butyl)-2-methoxy-3-(3-(4-((2-((3-methoxy-5-(2-(2-(2-methoxyethoxy)ethoxy)-ethoxy)phenyl)amino)pyrimidin-4-yl)oxy)naphthalen-1-yl)ureido)-N-(oxetan-3-yl)-benzamide] | 977 | 49 | 170 | 15 | 3 | 33 | 29
C#Cc1cc(Nc2cc(Oc3ccc(NC(=O)Nc4cc(C(C)(C)C)cc(NS(C)(=O)=O)c4OC)c4ccccc34)ccn2)cc(C(=O)NCCOCCOC)c1 [Example 52] | 12600 | 1260 | 277 | 100 | 2 | 9 | 1
C#Cc1cc(Nc2cc(Oc3ccc(NC(=O)Nc4cc(C(C)(C)C)cc(C(N)=O)c4OC)c4ccccc34)ccn2)cc(C(=O)NCCOCCOCCOC)c1 [Example 53, 3-((4-((4-(3-(5-(tert-Butyl)-3-carbamoyl-2-methoxyphenyl)ureido)naphthalen-1-yl)oxy)pyridin-2-yl)amino)-5-ethynyl-N-(2-(2-(2-methoxyethoxy)ethoxy)ethyl)benzamide] | 8780 | 1270 | 132 | 46 | −1 | 1 | 2
C#Cc1cc(Nc2cc(Oc3ccc(NC(=O)Nc4cc(C(C)(C)C)cc(NS(C)(=O)=O)c4OC)c4ccccc34)ccn2)cc(C(=O)NCCOCCOCCOC)c1 [Example 54] | 11900 | 1190 | 140 | 42 | 5 | 5 | −2
COCCOCCOCCOc1cc(Nc2cc(Oc3ccc(NC(=O)Nc4cc(C(C)(C)C)cc(C(=O)NCCN(C)C)c4OC)c4ccccc34)ccn2)cc(OC)c1 [Example 76, 5-(tert-Butyl)-N-(2-(dimethylamino)ethyl)-2-methoxy-3-(3-(4-((2-((3-methoxy-5-(2-(2-(2-methoxyethoxy)ethoxy)ethoxy)phenyl)amino)pyridin-4-yl)oxy)naphthalen-1-yl)ureido)-benzamide] | 4790 | 35 | 159 | 31 | 2 | −1 | −13
COCCOCCOCCOc1cc(Nc2cc(Oc3ccc(NC(=O)Nc4cc(C(C)(C)C)cc(C(=O)NC5COC5)c4OC)c4ccccc34)ccn2)cc(OC)c1 [Example 77, 5-(tert-Butyl)-2-methoxy-3-(3-(4-((2-((3-methoxy-5-(2-(2-(2-methoxyethoxy)ethoxy)ethoxy)-phenyl)amino)pyridin-4-yl)oxy)naphthalen-1-yl)ureido)-N-(oxetan-3-yl)benzamide] | 3540 | 39 | 216 | 23 | −4 | −1 | −1

More lines, main results first:

IC50 [1] [nM] | IC50 [2] [nM] | IC50 [3] [nM] | IC50 [4] [nM] | SMILES | % β-catenin induction ([5]; test compound 1 μg/mL) [%] | % β-catenin induction ([5]; test compound 5 μg/mL) [%] | % β-catenin induction ([5]; test compound 10 μg/mL) [%]
2360 | 131 | 157 | 22 | COCCOCCOCCOc1cc(Nc2nccc(Oc3ccc(NC(=O)Nc4cc(C(C)(C)C)cc(S(N)(=O)=O)c4OC)c4ccccc34)n2)cc(OC)c1 [Example 55, 5-(tert-Butyl)-2-methoxy-3-(3-(4-((2-((3-methoxy-5-(2-(2-(2-methoxyethoxy)ethoxy)-ethoxy)phenyl)amino)pyrimidin-4-yl)oxy)naphthalen-1-yl)ureido)benzenesulfonamide] | 11 | 23 | 45
763 | 631 | 335 | 45 | C#Cc1cc(Nc2nccc(Oc3ccc(NC(=O)Nc4cc(C(C)(C)C)cc(NS(C)(=O)=O)c4OC)c4ccccc34)n2)cc(C(=O)N[C@H](C)CN2CCOCC2)c1 [Example 56, (R)-3-((4-((4-(3-(5-(tert-Butyl)-2-methoxy-3-(methysulfonamido)phenyl)ureido)-naphthalen-1-yl)oxy)pyrimidin-2-yl)amino)-5-ethynyl-N-(1-morpholinopropan-2-yl)-benzamide] | 3 | 13 | 14
1120 | 706 | 286 | 48 | C#Cc1cc(Nc2nccc(Oc3ccc(NC(=O)Nc4cc(C(C)(C)C)cc(NS(C)(=O)=O)c4OC)c4ccccc34)n2)cc(C(=O)N[C@@H](C)CN2CCOCC2)c1 [Example 57, (S)-3-((4-((4-(3-(5-(tert-butyl)-2-methoxy-3-(methylsulfonamido)phenyl)ureido)-naphthalen-1-yl)oxy)pyrimidin-2-yl)amino)-5-ethynyl-N-(1-morpholinopropan-2-yl)benzamide] | 4 | 6 | 11
4340 | 461 | 181 | 48 | COCCOCCOCCOc1cc(Nc2nccc(Oc3ccc(NC(=O)Nc4cc(C(C)(C)C)cc(NS(C)(=O)=O)c4OC)c4ccccc34)n2)cc(OC)c1Cl [Example 58, N-(5-(tert-Butyl)-3-(3-(4-((2-((4-chloro-3-methoxy-5-(2-(2-(2-methoxyethoxy)ethoxy)ethoxy)-phenyl)amino)pyrimidin-4-yl)oxy)naphthalen-1-yl)ureido)-2-methoxyphenyl)-methanesulfonamide] | 5 | 2 | 10
978 | 128 | 132 | 28 | COCCOCCOCCOc1cc(Nc2nccc(Oc3ccc(NC(=O)Nc4cc(C(C)(C)C)cc(-c5nnco5)c4OC)c4ccccc34)n2)cc(OC)c1 [Example 59, 1-(5-(tert-Butyl)-2-methoxy-3-(1,3,4-oxadiazol-2-yl)phenyl)-3-(4-((2-((3-methoxy-5-(2-(2-(2-methoxyethoxy)ethoxy)ethoxy)phenyl)amino)pyrimidin-4-yl)oxy)naphthalen-1-yl)urea] | 14 | 33 | 28
7400 | 1290 | 326 | 85 | C#Cc1cc(Nc2cc(Oc3ccc(NC(=O)Nc4cc(NS(C)(=O)=O)cc(C(C)(C)C)c4)c4ccccc34)ccn2)cc(C(=O)NCCN2CCOCC2)c1 [Example 65, 3-((4-((4-(3-(3-(tert-Butyl)-5-(methylsulfonamido)phenyl)ureido)naphthalen-1-yl)oxy)-pyridin-2-yl)amino)-5-ethynyl-N-(2-morpholinoethyl)benzamide] | 5 | 2 | 6
11700 | 1170 | 245 | 56 | C#Cc1cc(Nc2cc(Oc3ccc(NC(=O)Nc4cc(C(C)(C)C)cc(NS(C)(=O)=O)c4OC)c4ccccc34)ccn2)cc(C(=O)N[C@@H](C)COCCOCCOC)c1 [Example 67] | 3 | 2 | −2
11700 | 1170 | 209 | 70 | C#Cc1cc(Nc2cc(Oc3ccc(NC(=O)Nc4cc(C(C)(C)C)cc(NS(C)(=O)=O)c4OC)c4ccccc34)ccn2)cc(C(=O)N[C@H](C)COCCOCCOC)c1 [Example 68, (R)-3-((4-((4-(3-(5-(tert-Butyl)-2-methoxy-3-(methylsulfonamido)phenyl)ureido)-naphthalen-1-yl)oxy)pyridin-2-yl)amino)-5-ethynyl-N-(1-(2-(2-methoxyethoxy)ethoxy)-propan-2-yl)benzamide] | 2 | 2 | −1
1530 | 121 | 147 | 13 | CCOc1c(NC(=O)Nc2ccc(Oc3ccnc(Nc4cc(OC)cc(OCCOCCOCCOC)c4)n3)c3ccccc23)cc(C(C)(C)C)cc1NS(C)(=O)=O [Example 69] | 10 | 17 | 25
